According to ChEMBL document CHEMBL4837263, “N-Aromatic-Substituted Indazole Derivatives as Brain-Penetrant and Orally Bioavailable JNK3 Inhibitors” (ACS Med Chem Lett, 2021):
Activity calls are given as the source filed them. The rule behind the calls is not given here.

Tests used:
[1] = biological target: Mitogen-activated protein kinase 10 (Homo sapiens, UniProt P53779); test: Inhibition of JNK3alpha1 (unknown origin) using biotinylated FL-ATF-2 as substrate measured after 22 mins by homogeneous time-resolved fluorescence analysis
[2] = biological target: Mitogen-activated protein kinase 8 (Homo sapiens, UniProt P45983); test: Inhibition of JNK1 (unknown origin) using biotinylated FL-ATF-2 as substrate measured after 22 mins by homogeneous time-resolved fluorescence analysis
[3] = biological target: Mitogen-activated protein kinase 14 (Homo sapiens, UniProt Q16539); test: Inhibition of p38 alpha (unknown origin) using biotinylated FL-ATF-2 as substrate measured after 22 mins by homogeneous time-resolved fluorescence analysis
[4] = Selectivity index, ratio of IC50 for JNK1 (unknown origin) to IC50 for JNK3 (unknown origin)
[5] = Selectivity index, ratio of IC50 for p38 alpha (unknown origin) to IC50 for JNK3 (unknown origin)
[6] = biological target: Mitogen-activated protein kinase 9 (Homo sapiens, UniProt P45984); test: Inhibition of JNK2 (unknown origin) using biotinylated FL-ATF-2 as substrate measured after 22 mins by homogeneous time-resolved fluorescence analysis
[7] = Selectivity index, ratio of IC50 for JNK2 (unknown origin) to IC50 for JNK3 (unknown origin)
[8] = biological target: Voltage-gated inwardly rectifying potassium channel KCNH2 (Homo sapiens, UniProt Q12809); test: Inhibition of human ERG expressed in CHO cells at -80 mV holding potential by automated Qpatch electrophysiological method
[9] = biological target: T1, CYP1A2 (Homo sapiens, UniProt P05177); test: Inhibition of CYP1A2 (unknown origin) assessed as phenaceten demethylation to acetaminophen at 10 uM by cocktail inhibition assay relative to control; details: probe phenacetin (demethylation to acetaminophen)
T1 sequence (P05177 whole entry): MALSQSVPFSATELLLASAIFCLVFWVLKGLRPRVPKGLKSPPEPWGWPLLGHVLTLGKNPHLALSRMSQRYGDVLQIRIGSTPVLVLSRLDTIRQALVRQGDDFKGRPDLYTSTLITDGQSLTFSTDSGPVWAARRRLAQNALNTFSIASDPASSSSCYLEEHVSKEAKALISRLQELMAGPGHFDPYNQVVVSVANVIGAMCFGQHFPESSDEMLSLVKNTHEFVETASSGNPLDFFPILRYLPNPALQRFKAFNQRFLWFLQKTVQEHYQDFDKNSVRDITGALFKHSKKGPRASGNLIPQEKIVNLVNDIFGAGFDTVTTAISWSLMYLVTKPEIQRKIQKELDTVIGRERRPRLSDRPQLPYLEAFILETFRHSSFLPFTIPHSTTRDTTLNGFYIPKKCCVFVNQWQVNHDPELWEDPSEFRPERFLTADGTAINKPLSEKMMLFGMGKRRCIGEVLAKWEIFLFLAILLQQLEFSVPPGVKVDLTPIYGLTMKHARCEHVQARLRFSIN

[10] = biological target: CYP2C9 (Homo sapiens, UniProt P11712); test: Inhibition of CYP2C9 (unknown origin) assessed as tolbutamide hydroxylation to hydrocytolbutamide at 10 uM by cocktail inhibition assay relative to control; details: probe tolbutamide (hydroxylation to hydroxytolbutamide)
[11] = biological target: CYP2D6 (Homo sapiens, UniProt P10635); test: Inhibition of CYP2D6 (unknown origin) assessed as bufuralol hydroxylation to 4'-hydroxy bufuralol at 10 uM by cocktail inhibition assay relative to control; details: probe bufuralol (hydroxylation to 4'-hydroxy bufuralol)
[12] = biological target: CYP3A4 (Homo sapiens, UniProt P08684); test: Inhibition of CYP3A4 (unknown origin) assessed as midazolam hydroxylation to 1'-hydroxy midazolam at 10 uM by cocktail inhibition assay relative to control; details: probe midazolam (hydroxylation to 1'-hydroxy midazolam)
[13] = Stability in human liver microsome assessed as half life; type: ADME; details: liver microsomes
[14] = Stability in mouse liver microsome assessed as half life; type: ADME; details: liver microsomes
[15] = tested on: SH-SY5Y; test: Cytotoxicity against human SH-SY5Y cells assessed as reduction in cell viability at 10 uM measured after 48 hrs by MTT assay; type: cell-based
[16] = biological target: Cytochrome P450 2C9 (Homo sapiens, UniProt P11712); test: Inhibition of CYP2C9 (unknown origin) by titration method
[17] = biological target: Mitogen-activated protein kinase 10 (Rattus norvegicus) (UniProt P49187); test: Inhibition of JNK3 in rat primary neuron assessed as reduction in phosphorylation of APP at T668 residue at < 1 nM incubated for 30 mins by Western blot analysis; details: dose nM <1, time 30.0 min
Chain of Mitogen-activated protein kinase 10 (Rattus norvegicus) (P49187 whole entry): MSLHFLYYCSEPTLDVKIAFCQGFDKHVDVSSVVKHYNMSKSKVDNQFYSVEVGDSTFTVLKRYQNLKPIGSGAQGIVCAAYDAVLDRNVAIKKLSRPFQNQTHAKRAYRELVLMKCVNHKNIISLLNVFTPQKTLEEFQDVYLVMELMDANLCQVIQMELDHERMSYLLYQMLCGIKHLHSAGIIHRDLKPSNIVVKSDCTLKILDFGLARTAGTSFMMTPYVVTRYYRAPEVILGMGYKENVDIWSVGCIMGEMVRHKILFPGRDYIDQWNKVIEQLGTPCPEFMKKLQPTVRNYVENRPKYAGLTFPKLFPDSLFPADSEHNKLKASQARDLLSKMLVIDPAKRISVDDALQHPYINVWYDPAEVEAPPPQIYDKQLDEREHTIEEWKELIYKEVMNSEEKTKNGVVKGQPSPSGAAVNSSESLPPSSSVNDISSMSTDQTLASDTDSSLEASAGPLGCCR

Chain of Mitogen-activated protein kinase 14 (Q16539 whole entry): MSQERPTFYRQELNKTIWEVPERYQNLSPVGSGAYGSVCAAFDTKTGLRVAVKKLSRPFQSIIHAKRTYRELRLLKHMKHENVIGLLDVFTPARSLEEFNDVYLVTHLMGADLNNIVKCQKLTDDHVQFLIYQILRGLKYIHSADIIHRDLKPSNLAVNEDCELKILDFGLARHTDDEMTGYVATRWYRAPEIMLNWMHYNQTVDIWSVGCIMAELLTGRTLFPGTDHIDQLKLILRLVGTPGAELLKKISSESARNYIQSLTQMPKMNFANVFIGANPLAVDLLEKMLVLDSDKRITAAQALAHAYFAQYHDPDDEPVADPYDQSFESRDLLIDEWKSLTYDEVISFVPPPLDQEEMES
Chain of Voltage-gated inwardly rectifying potassium channel KCNH2 (Q12809 whole entry): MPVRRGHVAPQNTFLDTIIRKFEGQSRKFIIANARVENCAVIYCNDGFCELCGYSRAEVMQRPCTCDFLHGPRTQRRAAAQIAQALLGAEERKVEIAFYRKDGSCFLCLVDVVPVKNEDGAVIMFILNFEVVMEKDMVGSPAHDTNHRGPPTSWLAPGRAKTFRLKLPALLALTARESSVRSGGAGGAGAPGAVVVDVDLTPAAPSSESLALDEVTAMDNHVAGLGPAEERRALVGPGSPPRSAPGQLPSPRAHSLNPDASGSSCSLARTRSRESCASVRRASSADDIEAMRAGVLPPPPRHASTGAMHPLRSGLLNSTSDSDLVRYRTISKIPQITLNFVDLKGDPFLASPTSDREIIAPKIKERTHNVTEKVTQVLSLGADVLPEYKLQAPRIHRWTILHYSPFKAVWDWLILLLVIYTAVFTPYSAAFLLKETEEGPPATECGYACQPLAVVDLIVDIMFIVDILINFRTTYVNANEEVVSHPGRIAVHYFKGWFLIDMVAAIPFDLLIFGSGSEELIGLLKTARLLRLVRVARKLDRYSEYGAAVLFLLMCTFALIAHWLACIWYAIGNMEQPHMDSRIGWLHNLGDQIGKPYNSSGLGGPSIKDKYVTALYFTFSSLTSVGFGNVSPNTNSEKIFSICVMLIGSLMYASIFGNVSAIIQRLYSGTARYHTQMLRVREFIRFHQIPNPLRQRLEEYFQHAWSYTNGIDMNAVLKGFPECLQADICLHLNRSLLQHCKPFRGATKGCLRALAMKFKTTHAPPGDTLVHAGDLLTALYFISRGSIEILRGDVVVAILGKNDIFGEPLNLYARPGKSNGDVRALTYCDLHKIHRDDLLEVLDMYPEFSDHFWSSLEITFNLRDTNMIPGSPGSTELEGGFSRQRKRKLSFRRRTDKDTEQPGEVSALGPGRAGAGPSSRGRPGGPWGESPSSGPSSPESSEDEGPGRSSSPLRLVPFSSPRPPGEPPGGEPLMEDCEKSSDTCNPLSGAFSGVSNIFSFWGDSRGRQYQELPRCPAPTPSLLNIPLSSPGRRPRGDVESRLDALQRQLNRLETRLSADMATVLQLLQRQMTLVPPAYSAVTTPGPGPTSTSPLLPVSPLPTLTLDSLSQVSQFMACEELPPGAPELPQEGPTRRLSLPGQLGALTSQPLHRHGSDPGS
Chain of Mitogen-activated protein kinase 10 (P53779 whole entry): as the sequence (P49187 whole entry) above, with H27Q, S32Y, V33I, V34A counted along it
Chain of Mitogen-activated protein kinase 9 (P45984 whole entry): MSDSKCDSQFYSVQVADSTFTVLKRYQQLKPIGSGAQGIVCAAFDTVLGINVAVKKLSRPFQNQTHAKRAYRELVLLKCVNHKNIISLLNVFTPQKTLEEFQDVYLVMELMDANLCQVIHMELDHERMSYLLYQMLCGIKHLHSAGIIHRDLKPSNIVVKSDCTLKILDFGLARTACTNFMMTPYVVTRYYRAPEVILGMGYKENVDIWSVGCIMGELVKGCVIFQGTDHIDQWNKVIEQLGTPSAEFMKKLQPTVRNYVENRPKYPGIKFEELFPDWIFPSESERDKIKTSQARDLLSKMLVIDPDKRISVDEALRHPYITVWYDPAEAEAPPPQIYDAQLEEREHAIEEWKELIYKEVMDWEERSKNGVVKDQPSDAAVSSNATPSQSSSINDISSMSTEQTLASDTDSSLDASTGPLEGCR
Chain of Mitogen-activated protein kinase 8 (P45983 whole entry): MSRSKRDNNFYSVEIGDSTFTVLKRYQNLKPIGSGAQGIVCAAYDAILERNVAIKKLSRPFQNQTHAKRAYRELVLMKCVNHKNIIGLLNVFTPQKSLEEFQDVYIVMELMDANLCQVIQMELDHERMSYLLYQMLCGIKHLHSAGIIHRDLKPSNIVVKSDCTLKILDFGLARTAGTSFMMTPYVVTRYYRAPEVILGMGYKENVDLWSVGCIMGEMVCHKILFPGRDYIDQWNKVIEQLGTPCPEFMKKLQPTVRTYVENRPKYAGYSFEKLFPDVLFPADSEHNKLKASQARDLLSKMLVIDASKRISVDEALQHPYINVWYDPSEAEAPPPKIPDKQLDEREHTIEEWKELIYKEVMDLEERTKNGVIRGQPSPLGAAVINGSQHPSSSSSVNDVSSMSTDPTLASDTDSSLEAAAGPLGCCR
Chain of CYP3A4 (P08684 whole entry): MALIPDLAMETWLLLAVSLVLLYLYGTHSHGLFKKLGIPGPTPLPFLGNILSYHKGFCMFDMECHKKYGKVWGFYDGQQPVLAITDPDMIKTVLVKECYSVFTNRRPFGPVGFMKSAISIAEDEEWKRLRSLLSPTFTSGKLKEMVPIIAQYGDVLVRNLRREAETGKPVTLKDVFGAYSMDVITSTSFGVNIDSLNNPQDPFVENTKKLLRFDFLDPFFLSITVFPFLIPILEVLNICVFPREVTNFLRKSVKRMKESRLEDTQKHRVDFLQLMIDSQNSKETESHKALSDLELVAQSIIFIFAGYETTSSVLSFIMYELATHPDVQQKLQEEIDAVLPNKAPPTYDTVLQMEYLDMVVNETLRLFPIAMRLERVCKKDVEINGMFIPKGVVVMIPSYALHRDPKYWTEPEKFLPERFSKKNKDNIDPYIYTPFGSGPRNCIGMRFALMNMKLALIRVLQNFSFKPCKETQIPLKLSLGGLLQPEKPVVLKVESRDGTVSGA
Chain of CYP2D6 (P10635 whole entry): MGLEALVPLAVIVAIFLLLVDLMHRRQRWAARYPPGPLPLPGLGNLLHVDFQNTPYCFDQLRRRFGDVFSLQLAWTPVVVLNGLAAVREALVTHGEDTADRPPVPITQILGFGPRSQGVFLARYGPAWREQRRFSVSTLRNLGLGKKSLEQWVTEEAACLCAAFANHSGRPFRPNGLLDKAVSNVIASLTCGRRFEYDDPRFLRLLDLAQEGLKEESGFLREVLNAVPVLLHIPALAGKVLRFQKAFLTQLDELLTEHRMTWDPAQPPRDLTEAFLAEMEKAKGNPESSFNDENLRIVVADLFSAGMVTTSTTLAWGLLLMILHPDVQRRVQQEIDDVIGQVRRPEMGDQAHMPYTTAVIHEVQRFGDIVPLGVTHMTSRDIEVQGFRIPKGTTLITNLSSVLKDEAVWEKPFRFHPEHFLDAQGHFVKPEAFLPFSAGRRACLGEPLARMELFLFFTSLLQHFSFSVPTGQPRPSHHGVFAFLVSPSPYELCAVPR
Chain of CYP2C9 (P11712 whole entry): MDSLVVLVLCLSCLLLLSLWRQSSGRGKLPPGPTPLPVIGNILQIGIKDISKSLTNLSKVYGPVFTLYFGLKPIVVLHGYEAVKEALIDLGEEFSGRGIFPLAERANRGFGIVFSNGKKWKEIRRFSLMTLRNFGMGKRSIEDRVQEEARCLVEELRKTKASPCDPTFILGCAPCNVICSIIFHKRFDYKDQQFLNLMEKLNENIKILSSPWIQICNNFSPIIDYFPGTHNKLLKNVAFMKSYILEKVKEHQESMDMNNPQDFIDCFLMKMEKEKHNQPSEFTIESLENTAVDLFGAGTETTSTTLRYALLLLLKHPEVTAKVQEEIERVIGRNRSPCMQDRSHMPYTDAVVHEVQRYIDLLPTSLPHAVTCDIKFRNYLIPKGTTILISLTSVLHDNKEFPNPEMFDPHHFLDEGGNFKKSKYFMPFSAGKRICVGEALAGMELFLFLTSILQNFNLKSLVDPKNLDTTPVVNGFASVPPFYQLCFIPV
Chain of Cytochrome P450 2C9 (P11712 whole entry): as above

| IC50 [1] [nM] | IC50 [2] [nM] | IC50 [3] [nM] | Ratio IC50 [4] | Ratio IC50 [5] | SMILES | further results |
| --- | --- | --- | --- | --- | --- | --- |
| 1 | 150 | 14 | 150 | 14 | O=C(NC1CC1)c1cc(-n2ncc3cc(Nc4ccccc4Cl)c(F)cc32)cs1 | – |
| 4 | 333 | 46 | 83 | 12 | O=C(NCC(F)F)c1cc(-n2ncc3cc(Nc4ccccc4Cl)c(F)cc32)cs1 | – |
| 31 | 825 | 325 | 27 | 10 | CC(C)N1CC[C@@H](NC(=O)c2cc(-n3ncc4cc(Nc5ccccc5Cl)ccc43)cs2)C1 | – |
| 2 | 178 | 24 | 89 | 12 | O=C(N[C@H]1CCOC1)c1cc(-n2ncc3cc(Nc4ccccc4Cl)c(F)cc32)cs1 | – |
| 5 | 285 | 300 | – | – | [2H]C([2H])([2H])N1CC[C@H](NC(=O)c2cc(-n3ncc4cc(Nc5ccccc5Cl)c(F)cc43)cs2)C1 | IC50 [8]: < 1000 nM |
| 3 | 169 | 41 | 56 | 14 | COCCNC(=O)c1cc(-n2ncc3cc(Nc4ccccc4Cl)c(F)cc32)cs1 | – |
| 2 | 400 | 124 | 200 | 62 | CC(C)NC(=O)c1cc(-n2ncc3cc(Nc4ccccc4Cl)c(F)cc32)cs1 | – |
| 4 | 627 | 65 | 132 | 16 | CC(=O)N1CC[C@H](NC(=O)c2cc(-n3ncc4cc(Nc5ccccc5Cl)c(F)cc43)cs2)C1 | – |
| 14 | 1050 | 400 | 75 | 29 | O=C(NC1COC1)c1cc(-n2ncc3cc(Nc4ccccc4Cl)c(F)cc32)cs1 | IC50 [6]: 1330 nM; Ratio IC50 [7]: 95; inhibition at 10 µM [9]: 4%; inhibition at 10 µM [10]: 41%; inhibition at 10 µM [11]: -16%; inhibition at 10 µM [12]: -56%; half-life [13]: 92 min; half-life [14]: 20 min; Cell viability [15]: 98% |
| 5 | 619 | 100 | 124 | 20 | CNC(=O)c1cc(-n2ncc3cc(Nc4ccccc4Cl)c(F)cc32)cs1 | IC50 [6]: 93 nM; Ratio IC50 [7]: 18; IC50 [8]: > 30000 nM; inhibition at 10 µM [9]: 21%; inhibition at 10 µM [10]: 39%; inhibition at 10 µM [11]: -4%; inhibition at 10 µM [12]: -13%; half-life [13]: 37 min; half-life [14]: 42 min; Cell viability [15]: 83%; inhibition [17]: Active |
| 2 | 120 | 47 | 60 | 24 | O=C(NC1CCOCC1)c1cc(-n2ncc3cc(Nc4ccccc4Cl)c(F)cc32)cs1 | – |

The next lines start with the molecule.

| SMILES | IC50 [1] [nM] | IC50 [2] [nM] | IC50 [3] [nM] | Ratio IC50 [4] | Ratio IC50 [5] | further results |
| --- | --- | --- | --- | --- | --- | --- |
| CNC(=O)c1cc(-n2ncc3cc(Nc4ccccc4Cl)c(OC)cc32)cs1 | 20 | 1100 | 160 | 55 | 8 | – |
| Cc1nc2c(cnn2-c2csc(C(=O)NC3COC3)c2)cc1Nc1cc(F)ccc1Cl | 1070 | > 10000 | 2890 | – | – | – |
| CNC(=O)c1cc(-n2ncc3cc(Nc4c(F)cccc4Cl)c(F)cc32)cs1 | 2 | 258 | 24 | 129 | 12 | IC50 [6]: 29 nM; Ratio IC50 [7]: 15 |
| [2H]C([2H])([2H])N1CC[C@H](NC(=O)c2cc(-n3ncc4cc(Nc5ccccc5Cl)ccc43)cs2)C1 | 1 | 263 | 226 | – | – | IC50 [8]: < 1000 nM |
| Cc1nc2c(cnn2-c2csc(C(=O)NC3COC3)c2)cc1Nc1cccc(F)c1Cl | 169 | > 10000 | 1420 | > 59 | 8 | – |
| Cc1nc2c(cnn2-c2csc(C(=O)NC3COC3)c2)cc1Nc1ccc(F)cc1Cl | 79 | 6000 | 490 | 76 | 6 | – |
| CNC(=O)c1cc(-n2ncc3nc(Nc4ccccc4Cl)ncc32)cs1 | 1000 | – | – | – | – | – |
| O=C(Nc1cnn(-c2cccc(C(=O)Nc3cnn(C4CCNC4)c3)c2)c1)Nc1ccccc1Cl (stereo unspecified) | < 1 | – | > 20000 | – | – | – |
| CNC(=O)c1cc(-n2ncc3cc(Nc4c(F)cccc4Cl)c(C)nc32)cs1 | 12 | 872 | 380 | 73 | 31 | IC50 [6]: 140 nM; Ratio IC50 [7]: 11; IC50 [8]: > 30000 nM; inhibition at 10 µM [9]: 43%; inhibition at 10 µM [10]: 61%; inhibition at 10 µM [11]: 19%; inhibition at 10 µM [12]: -2%; half-life [13]: 26 min; half-life [14]: 17 min; Cell viability [15]: 109% |
| CNC(=O)c1cc(-n2ncc3cc(Nc4ccccc4Cl)cnc32)cs1 | 24 | 4730 | 481 | 197 | 20 | IC50 [6]: 414 nM; Ratio IC50 [7]: 17; IC50 [8]: > 100000 nM; inhibition at 10 µM [9]: 30%; inhibition at 10 µM [10]: 66%; inhibition at 10 µM [11]: 30%; inhibition at 10 µM [12]: 57%; IC50 [16]: 4000 nM; half-life [13]: 15 min; half-life [14]: 14 min; Cell viability [15]: 119% |
| CN1CC[C@H](NC(=O)c2cc(-n3ncc4cc(Nc5ccccc5Cl)c(F)cc43)cs2)C1 | – | – | – | – | – | Ratio IC50 ([4]; tested as the 2H-labelled form): 57; Ratio IC50 ([5]; tested as the 2H-labelled form): 60 |
| O=C(Nc1cnn(-c2csc(C(=O)NC3COC3)c2)c1)Nc1ccccc1Cl | – | – | > 20000 | – | – | IC50 [8]: > 30000 nM; Cell viability [15]: 104% |
| O=C(NC1COC1)c1cc(-n2ncc3cc(Nc4ccccc4Cl)cnc32)cs1 | 6 | 940 | 260 | 157 | 43 | IC50 [6]: 256 nM; Ratio IC50 [7]: 43; inhibition at 10 µM [9]: 19%; inhibition at 10 µM [10]: 76%; inhibition at 10 µM [11]: 15%; inhibition at 10 µM [12]: 14%; IC50 [16]: 4000 nM; half-life [13]: 21 min; half-life [14]: 9 min; Cell viability [15]: 103% |
| CNC(=O)c1cc(-n2ncc3cc(Nc4c(F)cccc4Cl)cnc32)cs1 | 2 | 213 | 106 | – | – | IC50 [6]: 52 nM; half-life [13]: 30 min; half-life [14]: 22 min; Cell viability [15]: 104% |
| CNC(=O)c1cc(-n2ncc3cc(Nc4cccc(OC)c4Cl)c(C)nc32)cs1 | > 10000 | > 10000 | > 10000 | – | – | – |
| CNC(=O)c1cc(-n2ncc3cc(Nc4c(F)cccc4OC)c(F)cc32)cs1 | 5 | 1240 | 65 | 248 | 13 | – |
| O=C(NC1COC1)c1cc(-n2ncc3nc(Nc4ccccc4Cl)ccc32)cs1 | 100 | – | – | – | – | – |
| CN1CC[C@H](NC(=O)c2cc(-n3ncc4cc(Nc5ccccc5Cl)ccc43)cs2)C1 | – | – | – | – | – | Ratio IC50 ([4]; tested as the 2H-labelled form): 263; Ratio IC50 ([5]; tested as the 2H-labelled form): 226 |
| CNC(=O)c1cc(-n2ncc3cc(Nc4c(F)cccc4Cl)ncc32)cs1 | 2 | 260 | 57 | 130 | 28 | IC50 [6]: 74 nM; Ratio IC50 [7]: 37 |
| CNC(=O)c1cc(-n2ncc3cc(Oc4ccccc4Cl)ccc32)cs1 | – | – | – | – | – | IC50 [6]: 1020 nM; half-life [13]: 72 min; half-life [14]: 15 min; Cell viability [15]: 94% |
| O=C(NC1COC1)c1cc(-n2ncc3cc(Nc4ccccc4Cl)ncc32)cs1 | 5 | 690 | 86 | 139 | 17 | – |
